Test results as given in paper PMC10135569, “Does Enhanced Structural Maturity of hiPSC-Cardiomyocytes Better for the Detection of Drug-Induced Cardiotoxicity?” (Biomolecules, 2023).

Columns and labels:
[1] = tested on: hiPSC-CMs (iCell2 Cardiomyocytes) 2D monolayers; test: Contractility measurements using video imaging (ContractilityTool / MUSCLEMOTION); type: cell-based, human; conditions: Homo sapiens, Cardiomyocyte, 0.5 h, 30 min, delta over DMSO 0.1%
Procedure: (§1) Cardiomyocytes (FUJIFILM Cellular Dynamics, Madison, WI, USA) were kept at −190 °C and prepared for culture as per the manufacturer’s instructions.
(§2) Standard fibronectin vs. Matrix Plus well coating: The cells were cultured using two different coatings in a humidified incubator at 37 °C with 5% CO2. First, 96-well glass-bottomed plates (MatTek, Ashland, MA) were coated with fibronectin ([…] in PBS supplemented with Ca^2+ and Mg^2+; Sigma, St. Louis, MO, USA) (defining FM). Second, CELLvo^TM Matrix Plus (StemBioSys, San Antonio, TX, USA), which were pre-coated on 96 well glass bottom plates and kept at 4 °C. On the day of plating, CELLvo^TM Matrix Plus plates were transferred to room temperature, rehydrated with phosphate buffer saline (PBS), incubated for 1 h at 37 °C, and washed 2× with PBS. Cells were introduced at a density of 50,000 cells/well to allow the formation of a confluent monolayer in each well (defined as MM). The maintenance protocols followed the manufacturer’s instructions and used the iCell^2 Cardiomyocytes Maintenance media for media changes every 2 days. Experiments were performed between days 5 and 6, as recommended by the manufacturers. Before beginning an experiment, cells were washed in serum-free media (SF media) (Fluorobrite DMEM, Gibco, Thermo Fisher Scientific, Horsham, UK).
(§3) The drug powders were dissolved in DMSO, and four stock concentrations at 1000× the final target concentration were prepared in DMSO. For the experiment, an intermediate concentration 2× the target solution was prepared in SF media. The addition of drugs to the cells was accomplished by replacing 50% of the well volume with the intermediate 2× solution. The same procedure was done for vehicle control using DMSO. The experimental number n = 8/concentration/testing compound in the FM or MM condition, and n = 36 for each positive or negative control in the FM or MM condition.
(§4) The dye FluoVolt is loaded into the surface membrane (outer leaflet), and the dye remains within the membrane for many dots, allowing intermittent voltage measurements over the experimental period. In this study, measurements were restricted to within 30 mins of application of the drug. The measurements were made on the same area before/after drug/DMSO addition. […] Baseline spontaneous electrical activity and the associated contractility signal were recorded by capturing 10 s segments of fluorescent signal and video for 2D plates and 15 s for organoids from each well prior to compound addition. Drugs were tested at four concentrations in n = 8 independent replicates (i.e., 8 wells from a single plating) at each concentration. A vehicle control was included for each drug. A 10 s or 15 s recording was then taken 30 min after exposure to the drug or vehicle with only one concentration applied/well. Offline analysis was performed using proprietary software (CellOPTIQ®).
Short periods (10 s or 15 s) of video were analyzed using the ContractilityTool application (developed by F.L. Burton), which is an implementation of the MUSCLEMOTION algorithm.

[2] = tested on: hiPSC-CMs (iCell2 Cardiomyocytes) 2D monolayers; test: Membrane potential (action potential) recordings with FluoVolt voltage-sensitive dye on the CellOPTIQ platform; type: cell-based, human; conditions: for activity at 0.03 µM / activity at 0.1 µM / activity at 0.3 µM / activity at 1 µM: Homo sapiens, Cardiomyocyte, 0.5 h, 30 min, delta over DMSO 0.1%
Procedure: as §1, §2, §3
Cultures of hiPSC-CMs (5–6 days post-plating) were treated with FluoVolt dye (1:1000, Invitrogen, Cat# F10488) in SF media and incubated for 20 min at 37 °C with 5% CO2 and 80% humidity. Multi-well plates were placed in the environmentally controlled stage incubator (37 °C, 5% CO2, water-saturated air atmosphere) (Okolab Inc. Burlingame, CA) of the CellOPTIQ® platform (Clyde Biosciences Ltd., Glasgow, Scotland). The FluoVolt signal was recorded from a 0.2 mm × 0.2 mm area using a 40× (numerical aperture: NA 0.6) Excitation wavelength was 470 ± 10 nm using a light-emitting diode (LED), and emitted light was collected by two photomultipliers (PMTs) at 510–560 nm (channel 1) and 590–650 nm (channel 2), respectively. LED, PMT, and associated power supplies and amplifiers were supplied by Cairn Research Ltd. (Kent, UK) and digitized at 10 kHz and stored on a computer hard drive. In the case of FluoVolt-based action potential recordings, the short wavelength (channel 1, […]) was analyzed for action potential features.
as §4, with “applied/well.” for “applied/well. Offline analysis was performed using proprietary software (CellOPTIQ®).”

[3] = FM monolayer, read-out: CtAmp (%DD)
[4] = FM monolayer, read-out: CtD50 (%DD)
[5] = MM monolayer, read-out: CtAmp (%DD)
[6] = MM monolayer, read-out: CtD50 (%DD)
[7] = FM monolayer, read-out: APD30 (%DD)
[8] = FM monolayer, read-out: APD90 (%DD)
[9] = FM monolayer, read-out: CL (%DD)
[10] = FM monolayer, read-out: Trise (%DD)
[11] = MM monolayer, read-out: APD30 (%DD)
[12] = MM monolayer, read-out: APD90 (%DD)
[13] = MM monolayer, read-out: CL (%DD)
[14] = MM monolayer, read-out: Trise (%DD)

C[N+](C)(C)CCOC(N)=O [Carbachol]
activity at 0.03 µM [1, 3]: 94 ± 15.9%
activity at 0.03 µM [1, 4]: 104 ± 2.1%
activity at 0.1 µM [1, 3]: 85 ± 10.4%
activity at 0.1 µM [1, 4]: 103 ± 2%
activity at 0.3 µM [1, 3]: 102 ± 21.3%
activity at 0.3 µM [1, 4]: 108 ± 2.1%
activity at 1 µM [1, 3]: 109 ± 13.8%
activity at 1 µM [1, 4]: 107 ± 3.7%
activity at 0.03 µM [1, 5]: 86 ± 6.4%
activity at 0.03 µM [1, 6]: 98 ± 1.5%
activity at 0.1 µM [1, 5]: 135 ± 12.9%
activity at 0.1 µM [1, 6]: 102 ± 1.8%
activity at 0.3 µM [1, 5]: 118 ± 12.9%
activity at 0.3 µM [1, 6]: 111 ± 2.1%
activity at 1 µM [1, 5]: 114 ± 18.4%
activity at 1 µM [1, 6]: 118 ± 1.5%
activity at 0.03 µM [2, 7]: 97 ± 2.3%
activity at 0.03 µM [2, 8]: 99 ± 1.4%
activity at 0.03 µM [2, 9]: 99 ± 2.6%
activity at 0.03 µM [2, 10]: 104 ± 11.8%
activity at 0.1 µM [2, 7]: 104 ± 2.6%
activity at 0.1 µM [2, 8]: 100 ± 1.2%
activity at 0.1 µM [2, 9]: 105 ± 0.6%
activity at 0.1 µM [2, 10]: 125 ± 18.5%
activity at 0.3 µM [2, 7]: 102 ± 2.9%
activity at 0.3 µM [2, 8]: 103 ± 1%
activity at 0.3 µM [2, 9]: 109 ± 1%
activity at 0.3 µM [2, 10]: 118 ± 17.5%
activity at 1 µM [2, 7]: 103 ± 1.6%
activity at 1 µM [2, 8]: 110 ± 1.1%
activity at 1 µM [2, 9]: 114 ± 0.5%
activity at 1 µM [2, 10]: 95 ± 17.7%
activity at 0.03 µM [2, 11]: 105 ± 2.2%
activity at 0.03 µM [2, 12]: 103 ± 1.8%
activity at 0.03 µM [2, 13]: 106 ± 0.3%
activity at 0.03 µM [2, 14]: 186 ± 29%
activity at 0.1 µM [2, 11]: 106 ± 2.4%
activity at 0.1 µM [2, 12]: 107 ± 1.1%
activity at 0.1 µM [2, 13]: 115 ± 0.6%
activity at 0.1 µM [2, 14]: 144 ± 20.7%
activity at 0.3 µM [2, 11]: 111 ± 1.9%
activity at 0.3 µM [2, 12]: 111 ± 1.1%
activity at 0.3 µM [2, 13]: 122 ± 0.9%
activity at 0.3 µM [2, 14]: 143 ± 22.1%
activity at 1 µM [2, 11]: 120 ± 2.3%
activity at 1 µM [2, 12]: 118 ± 1%
activity at 1 µM [2, 13]: 131 ± 0.7%
activity at 1 µM [2, 14]: 143 ± 17.8%
effect on cycle length (in words) ([2]; both FM and MM monolayers, concentration not given): concentration-dependent increase
